Assay: accelerated degradation studies (chemical stability, purity by HPLC)
Type: physicochemical
Description: Crystalline particles of Form S of the compound of formula (I) were obtained using the methods described in Example 5 above. Crystalline particles of Form A were also obtained, using the ethyl acetate-heptane crystallization system described in WO2010/071583. Samples of Form A and Form S were subject to accelerated degradation studies. Samples of each crystalline form were stored at varying combinations of temperature and relative humidity and analysed for purity by HPLC at 0, 14 and 28 days.

[1] = 60 °C, 30% relative humidity, Day 0
[2] = 60 °C, 30% relative humidity, Day 14
[3] = 60 °C, 30% relative humidity, Day 28
[4] = 60 °C, 75% relative humidity, Day 0
[5] = 60 °C, 75% relative humidity, Day 14
[6] = 60 °C, 75% relative humidity, Day 28
[7] = 70 °C, 11% relative humidity, Day 0
[8] = 70 °C, 11% relative humidity, Day 14
[9] = 70 °C, 11% relative humidity, Day 28
[10] = 70 °C, 75% relative humidity, Day 0
[11] = 70 °C, 75% relative humidity, Day 14
[12] = 70 °C, 75% relative humidity, Day 28
[13] = 80 °C, 30% relative humidity, Day 0
[14] = 80 °C, 30% relative humidity, Day 14
[15] = 80 °C, 30% relative humidity, Day 28

Structure (SMILES) | Purity by HPLC [1] | Purity by HPLC [2] | Purity by HPLC [3] | Purity by HPLC [4] | Purity by HPLC [5] | Purity by HPLC [6] | Purity by HPLC [7] | Purity by HPLC [8] | Purity by HPLC [9] | Purity by HPLC [10] | Purity by HPLC [11] | Purity by HPLC [12] | Purity by HPLC [13] | Purity by HPLC [14] | Purity by HPLC [15] | degradation in accelerated degradation studies (under all the conditions that the samples were exposed to, Form S compared with Form A)
CNCCOc1ccccc1C1(Nc2nccn(-c3cc(C(=O)NC4CC4)cc(F)c3C)c2=O)CC1 [Form A, N-cyclopropyl-3-fluoro-4-methyl-5-[3-[[1-[2-[2-(methylamino)ethoxy]phenyl]cyclopropyl]amino]-2-oxo-pyrazin-1-yl]benzamide, reference compound] | 99.43% | 99.41% | 99.39% | 99.43% | 99.20% | 99.21% | 99.43% | 99.33% | 99.33% | 99.43% | 98.78% | 98.76% | 99.43% | 99.40% | 99.36% | –
CNCCOc1ccccc1C1(Nc2nccn(-c3cc(C(=O)NC4CC4)cc(F)c3C)c2=O)CC1 [Form S, N-cyclopropyl-3-fluoro-4-methyl-5-[3-[[1-[2-[2-(methylamino)ethoxy]phenyl]cyclopropyl]amino]-2-oxo-pyrazin-1-yl]benzamide] | 99.77% | 99.77% | 99.77% | 99.77% | 99.64% | 99.63% | 99.77% | 99.77% | 99.77% | 99.77% | 99.77% | 99.77% | 99.77% | 99.77% | 99.78% | significantly less degradation than Form A

Reference: patent US20190100498A1, “CRYSTALLINE FORM” (AstraZeneca AB, priority 2016, published 2019)
